Laboratory results published in patent US7335654B2, “Phosphodiesterase 4 inhibitors” (Memory Pharmaceuticals Corporation, priority 2002, dated 2008).

Tests used:
[1] = tested on: rats (male Spraque-Dawley (Harlan)); experiment: Radial arm maze task in rats, in vivo test for learning and memory; design: species or system rat; conditions: MK-801 0.1 mg/kg, i.p., compared to control (p<0.01)
Experimental: The test was performed as previously described (Zhang, H.-T., Crissman, A. M., Dorairaj, N. R., Chandler, L. J., and O'Donnell, J. M., Neuropsychopharmacology, 2000, 23, 198-204.). Five days after initial housing, rats (male Spraque-Dawley (Harlan) weighing 250 to 350 g) were placed in the eight-arm radial maze (each arm was 60×10×12 cm high; the maze was elevated 70 cm above the floor) for acclimation for two days. Rats were then placed individually in the center of the maze for 5 minutes with food pellets placed close to the food wells, and then, the next day, in the wells at the end of the arms; 2 sessions a day were conducted. Next, four randomly selected arms were then baited with one pellet of food each. The rat was restricted to the center platform (26 cm in diameter) for 15 seconds and then allowed to move freely throughout the maze until it collected all pellets of food or 10 minutes passed, whichever came first. Four parameters were recorded: 1) working memory errors, i.e., entries into baited arms that had already been visited during the same trial; 2) reference memory errors, i.e., entries into unbaited arms; 3) total arm entries; and 4) the test duration (seconds), i.e., the time spent in the collection of all the pellets in the maze. […]
(§1) All data were analyzed by analyses of variance (ANOVA); individual comparisons were made using Kewman-Keuls tests. […]

[2] = tested on: rat (Male Spraque-Dawley (Harlan)); experiment: Passive avoidance in rats, in vivo test for learning and memory; conditions: retention test 24 hours after electric shock; MK-801 0.1 mg/kg pretreatment compared to the vehicle (p<0.001)
Experimental: The test was performed as previously described (Zhang, H.-T., Crissman, A. M., Dorairaj, N. R., Chandler, L. J., and O'Donnell, J. M., Neuropsychopharmacology, 2000, 23, 198-204.). The apparatus (Model E10-16SC, Coulbourn Instruments, Allentown, Pa.) consisted of a two-compartment chamber with an illuminated compartment connected to a darkened compartment by a guillotine door. The floor of the darkened compartment consisted of stainless steel rods through which an electric foot-shock could be delivered from a constant current source. All experimental groups were first habituated to the apparatus the day before the start of the experiment. During the training, the rat (Male Spraque-Dawley (Harlan) weighing 250 to 350 g) was placed in the illuminated compartment facing away from the closed guillotine door for 1 minute before the door was raised. The latency for entering the darkened compartment was recorded. After the rat entered the darkened compartment, the door was closed and a 0.5 mA electric shock was administered for 3 seconds. […] The latency for entering the darkened compartment was recorded for up to 180 seconds, at which time the trial was terminated.
as §1

What does the source list for C[C@]12N[C@H](Cc3ccccc31)c1ccccc12 [MK-801]?
frequency of reference memory errors [1]: increased; frequency of working memory errors [1]: increased; latency for entering the darkened compartment [2]: markedly reduced
